PubChem BioAssay (NCI)
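Each compound was tested at five concentrations against cells in 96-well plates for 48 hours. TGI: concentration producing complete growth inhibition.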

Tests used:
Assay in all cases: NCI anticancer screen, dose series, 48 h
786-0 renal = tested on: 786-0 renal
A498 renal = tested on: A498 renal
A549 NSCLC = tested on: A549 NSCLC
ACHN renal = tested on: ACHN renal
BT-549 breast = tested on: BT-549 breast
CAKI-1 renal = tested on: CAKI-1 renal
CCRF-CEM leukemia = tested on: CCRF-CEM leukemia
COLO 205 colon = tested on: COLO 205 colon
DU-145 prostate = tested on: DU-145 prostate
HCC-2998 colon = tested on: HCC-2998 colon
HCT-116 colon = tested on: HCT-116 colon
HCT-15 colon = tested on: HCT-15 colon
HOP-62 NSCLC = tested on: HOP-62 NSCLC
HOP-92 NSCLC = tested on: HOP-92 NSCLC
HT29 colon = tested on: HT29 colon
IGROV1 ovarian = tested on: IGROV1 ovarian
K-562 leukemia = tested on: K-562 leukemia
KM12 colon = tested on: KM12 colon
M14 melanoma = tested on: M14 melanoma
MALME-3M melanoma = tested on: MALME-3M melanoma
MCF7 breast = tested on: MCF7 breast
MDA-MB-231 breast = tested on: MDA-MB-231 breast
MDA-MB-435 = tested on: MDA-MB-435
MDA-N = tested on: MDA-N
MOLT-4 leukemia = tested on: MOLT-4 leukemia
NCI-H226 lung = tested on: NCI-H226 lung
NCI-H23 lung = tested on: NCI-H23 lung
NCI-H460 lung = tested on: NCI-H460 lung
NCI-H522 lung = tested on: NCI-H522 lung
NCI/ADR-RES ovarian = tested on: NCI/ADR-RES ovarian
OVCAR-3 ovarian = tested on: OVCAR-3 ovarian
OVCAR-4 ovarian = tested on: OVCAR-4 ovarian
OVCAR-5 ovarian = tested on: OVCAR-5 ovarian
OVCAR-8 ovarian = tested on: OVCAR-8 ovarian
PC-3 prostate = tested on: PC-3 prostate
RPMI-8226 leukemia = tested on: RPMI-8226 leukemia
RXF 393 renal = tested on: RXF 393 renal
SF-268 CNS = tested on: SF-268 CNS
SF-295 CNS = tested on: SF-295 CNS
SF-539 CNS = tested on: SF-539 CNS
SK-MEL-2 melanoma = tested on: SK-MEL-2 melanoma
SK-MEL-28 melanoma = tested on: SK-MEL-28 melanoma
SK-MEL-5 melanoma = tested on: SK-MEL-5 melanoma
SK-OV-3 ovarian = tested on: SK-OV-3 ovarian
SN12C renal = tested on: SN12C renal
SNB-75 CNS = tested on: SNB-75 CNS
SR leukemia = tested on: SR leukemia
SW-620 colon = tested on: SW-620 colon
T-47D breast = tested on: T-47D breast
TK-10 renal = tested on: TK-10 renal
U251 CNS = tested on: U251 CNS
UACC-257 melanoma = tested on: UACC-257 melanoma
UACC-62 melanoma = tested on: UACC-62 melanoma
UO-31 renal = tested on: UO-31 renal
EKVX NSCLC = tested on: EKVX NSCLC
HL-60(TB) leukemia = tested on: HL-60(TB) leukemia
HS 578T breast = tested on: HS 578T breast
LOX IMVI melanoma = tested on: LOX IMVI melanoma
SNB-19 CNS = tested on: SNB-19 CNS

Cn1cnnc1SC(F)(F)c1nc2ccccc2o1
TGI (786-0 renal): > 100 µM
TGI (A498 renal): > 100 µM
TGI (A549 NSCLC): > 100 µM
TGI (ACHN renal): > 100 µM
TGI (BT-549 breast): > 100 µM
TGI (CAKI-1 renal): > 100 µM
TGI (CCRF-CEM leukemia): > 100 µM
TGI (COLO 205 colon): > 100 µM
TGI (DU-145 prostate): > 100 µM
TGI (HCC-2998 colon): > 100 µM
TGI (HCT-116 colon): > 100 µM
TGI (HCT-15 colon): > 100 µM
TGI (HOP-62 NSCLC): > 100 µM
TGI (HOP-92 NSCLC): > 100 µM
TGI (HT29 colon): > 100 µM
TGI (IGROV1 ovarian): > 100 µM
TGI (K-562 leukemia): > 100 µM
TGI (KM12 colon): > 100 µM
TGI (M14 melanoma): > 100 µM
TGI (MALME-3M melanoma): > 100 µM
TGI (MCF7 breast): > 100 µM
TGI (MDA-MB-231 breast): > 100 µM
TGI (MDA-MB-435): > 100 µM
TGI (MDA-N): > 100 µM
TGI (MOLT-4 leukemia): > 100 µM
TGI (NCI-H226 lung): > 100 µM
TGI (NCI-H23 lung): > 100 µM
TGI (NCI-H460 lung): > 100 µM
TGI (NCI-H522 lung): > 100 µM
TGI (NCI/ADR-RES ovarian): > 100 µM
TGI (OVCAR-3 ovarian): > 100 µM
TGI (OVCAR-4 ovarian): > 100 µM
TGI (OVCAR-5 ovarian): > 100 µM
TGI (OVCAR-8 ovarian): > 100 µM
TGI (PC-3 prostate): > 100 µM
TGI (RPMI-8226 leukemia): > 100 µM
TGI (RXF 393 renal): > 100 µM
TGI (SF-268 CNS): > 100 µM
TGI (SF-295 CNS): > 100 µM
TGI (SF-539 CNS): > 100 µM
TGI (SK-MEL-2 melanoma): > 100 µM
TGI (SK-MEL-28 melanoma): > 100 µM
TGI (SK-MEL-5 melanoma): > 100 µM
TGI (SK-OV-3 ovarian): > 100 µM
TGI (SN12C renal): > 100 µM
TGI (SNB-75 CNS): > 100 µM
TGI (SR leukemia): > 100 µM
TGI (SW-620 colon): > 100 µM
TGI (T-47D breast): > 100 µM
TGI (TK-10 renal): > 100 µM
TGI (U251 CNS): > 100 µM
TGI (UACC-257 melanoma): > 100 µM
TGI (UACC-62 melanoma): > 100 µM
TGI (UO-31 renal): > 100 µM

O=C(c1ccccc1)c1ccc2nc3n(c2c1)C(c1c(Cl)cccc1Cl)SC3 (stereo not drawn)
TGI (786-0 renal): > 100 µM
TGI (A498 renal): 50.1 µM
TGI (A549 NSCLC): 54.7 µM
TGI (ACHN renal): > 38 µM
TGI (BT-549 breast): > 100 µM
TGI (CAKI-1 renal): > 51.7 µM
TGI (CCRF-CEM leukemia): > 100 µM
TGI (COLO 205 colon): > 90.2 µM
TGI (DU-145 prostate): > 94.5 µM
TGI (EKVX NSCLC): 78.6 µM
TGI (HCC-2998 colon): > 50.4 µM
TGI (HCT-116 colon): 12.8 µM
TGI (HCT-15 colon): > 100 µM
TGI (HL-60(TB) leukemia): > 53.5 µM
TGI (HOP-62 NSCLC): > 44.4 µM
TGI (HOP-92 NSCLC): > 100 µM
TGI (HS 578T breast): > 65 µM
TGI (HT29 colon): 31 µM
TGI (IGROV1 ovarian): > 100 µM
TGI (K-562 leukemia): > 100 µM
TGI (KM12 colon): 19.5 µM
TGI (LOX IMVI melanoma): 31.6 µM
TGI (M14 melanoma): 16.9 µM
TGI (MALME-3M melanoma): 31.3 µM
TGI (MCF7 breast): > 100 µM
TGI (MDA-MB-231 breast): > 100 µM
TGI (MDA-N): 3.84 µM
TGI (MOLT-4 leukemia): 19.7 µM
TGI (NCI-H226 lung): > 100 µM
TGI (NCI-H23 lung): 83.6 µM
TGI (NCI-H460 lung): > 51.9 µM
TGI (NCI-H522 lung): 5.1 µM
TGI (NCI/ADR-RES ovarian): 35.8 µM
TGI (OVCAR-3 ovarian): > 100 µM
TGI (OVCAR-4 ovarian): > 80.3 µM
TGI (OVCAR-5 ovarian): > 100 µM
TGI (OVCAR-8 ovarian): > 55.5 µM
TGI (PC-3 prostate): > 100 µM
TGI (RPMI-8226 leukemia): > 74.7 µM
TGI (RXF 393 renal): > 100 µM
TGI (SF-268 CNS): > 100 µM
TGI (SF-295 CNS): > 26.6 µM
TGI (SF-539 CNS): > 59.4 µM
TGI (SK-MEL-2 melanoma): 78.5 µM
TGI (SK-MEL-28 melanoma): > 100 µM
TGI (SK-MEL-5 melanoma): 14.6 µM
TGI (SK-OV-3 ovarian): > 30.7 µM
TGI (SN12C renal): > 68.7 µM
TGI (SNB-19 CNS): > 64.1 µM
TGI (SNB-75 CNS): 18.9 µM
TGI (SR leukemia): 8.42 µM
TGI (SW-620 colon): > 100 µM
TGI (T-47D breast): 24.5 µM
TGI (TK-10 renal): > 100 µM
TGI (U251 CNS): > 100 µM
TGI (UACC-257 melanoma): > 100 µM
TGI (UACC-62 melanoma): > 36.5 µM
TGI (UO-31 renal): > 67.6 µM

Cc1ccc(C=C(C(=O)O)C(=O)O)o1
TGI (786-0 renal): > 100 µM
TGI (A498 renal): > 100 µM
TGI (A549 NSCLC): > 100 µM
TGI (ACHN renal): > 100 µM
TGI (BT-549 breast): > 100 µM
TGI (CAKI-1 renal): > 100 µM
TGI (CCRF-CEM leukemia): > 100 µM
TGI (COLO 205 colon): > 100 µM
TGI (DU-145 prostate): > 100 µM
TGI (EKVX NSCLC): > 100 µM
TGI (HCC-2998 colon): > 100 µM
TGI (HCT-116 colon): > 100 µM
TGI (HCT-15 colon): > 100 µM
TGI (HL-60(TB) leukemia): > 100 µM
TGI (HOP-62 NSCLC): > 100 µM
TGI (HS 578T breast): > 100 µM
TGI (HT29 colon): > 100 µM
TGI (IGROV1 ovarian): > 100 µM
TGI (K-562 leukemia): > 100 µM
TGI (KM12 colon): > 100 µM
TGI (LOX IMVI melanoma): > 100 µM
TGI (M14 melanoma): > 100 µM
TGI (MALME-3M melanoma): > 100 µM
TGI (MCF7 breast): > 100 µM
TGI (MDA-MB-231 breast): > 100 µM
TGI (MDA-MB-435): > 100 µM
TGI (MDA-N): > 100 µM
TGI (MOLT-4 leukemia): > 100 µM
TGI (NCI-H226 lung): > 100 µM
TGI (NCI-H23 lung): > 100 µM
TGI (NCI-H460 lung): > 100 µM
TGI (NCI-H522 lung): > 100 µM
TGI (NCI/ADR-RES ovarian): > 100 µM
TGI (OVCAR-3 ovarian): > 100 µM
TGI (OVCAR-5 ovarian): > 100 µM
TGI (OVCAR-8 ovarian): > 100 µM
TGI (PC-3 prostate): > 100 µM
TGI (RPMI-8226 leukemia): > 100 µM
TGI (RXF 393 renal): > 100 µM
TGI (SF-268 CNS): > 100 µM
TGI (SF-295 CNS): > 100 µM
TGI (SF-539 CNS): > 100 µM
TGI (SK-MEL-2 melanoma): > 100 µM
TGI (SK-MEL-28 melanoma): > 100 µM
TGI (SK-MEL-5 melanoma): > 100 µM
TGI (SK-OV-3 ovarian): > 100 µM
TGI (SN12C renal): > 100 µM
TGI (SNB-19 CNS): > 100 µM
TGI (SNB-75 CNS): > 100 µM
TGI (SR leukemia): > 100 µM
TGI (SW-620 colon): > 100 µM
TGI (TK-10 renal): > 100 µM
TGI (U251 CNS): > 100 µM
TGI (UACC-257 melanoma): > 100 µM
TGI (UACC-62 melanoma): > 100 µM
TGI (UO-31 renal): > 100 µM
